Data from patent US5952511A, “Indolin-2-one derivatives” (Chugai Seiyaku Kabushiki Kaisha, priority 1993, dated 1999).

Experiments:
[1] = biological target: T1, gastrin receptors (guinea pig gastric glands) (Cavia porcellus, UniProt H0VZC5); test: Gastrin Receptor Binding Test in Guinea Pig Gastric Glands (Test Example 1); design: species or system guinea pig (Hartley, male); conditions: inhibition of specific 125I-gastrin I human binding (22.5 pM), 25° C., 45 min
T1 construct: The gastric glands were isolated from the tissue with a pipette; from tissue; host or cells: isolated gastric glands from gastric mucosa of Hartley male guinea pigs
T1 sequence (H0VZC5 1-426): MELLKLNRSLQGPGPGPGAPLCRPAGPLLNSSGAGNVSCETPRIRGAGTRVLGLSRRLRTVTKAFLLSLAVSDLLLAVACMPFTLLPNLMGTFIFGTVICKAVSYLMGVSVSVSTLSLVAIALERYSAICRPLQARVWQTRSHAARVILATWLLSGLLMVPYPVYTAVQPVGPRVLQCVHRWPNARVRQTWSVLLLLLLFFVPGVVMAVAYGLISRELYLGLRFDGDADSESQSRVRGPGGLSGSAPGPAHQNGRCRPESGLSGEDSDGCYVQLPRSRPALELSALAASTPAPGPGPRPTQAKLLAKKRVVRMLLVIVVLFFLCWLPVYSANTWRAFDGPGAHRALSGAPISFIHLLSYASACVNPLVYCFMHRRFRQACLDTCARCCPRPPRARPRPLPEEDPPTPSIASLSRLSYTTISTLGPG
Experimental: Gastrin Receptor Binding Test in Guinea Pig Gastric Glands
Preparation of Gastric Glands:
Guinea pig gastric glands were prepared according to the method of Chang, et al., Biochem. Biophys. Res. Commun., 134, 895 (1986). The gastric mucosa of a Hartley male guinea pig was peeled off. After washing, the mucosa was minced with scissors in buffer A (Eagle's MEM containing 2 mM L-glutamine and 25 mM HEPES; pH 7.4). After washing, the minced tissue was incubated in buffer A containing 0.025% collagenase, 0.01% soy bean trypsin inhibitor, and 0.1% BSA at 37° C. for 60 minutes under 95% O2 and 5% CO2. The gastric glands were isolated from the tissue with a pipette, washed twice with buffer A, and filtered through a mesh. Then, the gastric glands were obtained by centrifugation.
Guinea pig gastric glands were resuspended in buffer B (Hank's solution containing 10 mM HEPES and 0.2% BSA; pH 7.4) (10 ml of buffer B per guinea pig).
To 200 μl of the suspension containing the resuspended isolated gastric glands were added 20 μl of ^125 I-gastrin I human (final concentration: 22.5 pM). Then, 10 μl of a test compound or a solvent (for total binding) or 10 μM Pentagastrin (for nonspecific binding), and buffer B was added there to make a total volume of 1 ml. The reaction mixture was incubated at 25° C. for 45 minutes and then centrifuged at 12000 g. The supernatant was removed by suction, and the radioactivity of the isolated gastric glands was measured with a gamma-counter.
The specific binding of gastrin to gastrin receptors was obtained from a difference between the total binding and the nonspecific binding. The IC50 of the test compound in inhibition of specific binding was calculated.

gastric acid secretion = test: Inhibitory Activity on Gastric Acid Secretion in Pylorus Ligated Rats (Test Example 2); format: in vivo, rat (Sprague-Dawley, male); conditions: Rattus norvegicus, intraduodenal, i.d., 4 h
Experimental: Inhibitory Activity on Gastric Acid Secretion in Pyrolus Ligated Rats
Sprague-Dawley male rats weighing about 200 g were deprived of food for 24 hours while allowed water ad libitum. The abdomen was opened under anesthesia with ethyl ether, the pyrolus ligated, and the abdomen closed. The rats were deprived of food and water for 4 hours until they were surcrified with ethyl ether. The stomach was removed, and gastric juice was collected and measured. The gastric juice was centrifuged at 3000 rpm, and the supernatant was titrated up to pH 7.0 with 0.1N NaOH solution to obtain the acidity of the gastric juice. The amount of the gastric acid output was calculated by multiplying the gastric juice volume by the acidity, and the percent inhibition of acid secretion was obtained according to the following equation. A test compound, suspended in a 3% gum arabic solution, was administered intraduodenally at a dose of 2 ml/kg immediately after the pyrolus ligation.
Inhibition (%)=[(Average amount of gastric acid output in control group--Average amount of gastric acid output in test group)/Average amount of gastric acid secreted […]]×100

SMILES	IC50 [1]	inhibition in vivo at 10 mg/kg (gastric acid secretion)	inhibition in vivo at 3 mg/kg (gastric acid secretion; 3 mg/kg)
CCOC(CN1C(=O)C(CC(=O)Nc2ccc(F)cc2)(NC(=O)Nc2ccc(C)cc2)c2ccccc21)OCC (racemic) [Example 124, (RS)-1-(2,2-Diethoxyethyl)-3-((4-fluorophenyl)aminocarbonylmethyl)-3-(N'-(4-methylphenyl)ureido)indolin-2-one]	5.3 nM	54%	
CCOC(CN1C(=O)C(CC(=O)Nc2ccc(Cl)cc2)(NC(=O)Nc2ccc(Cl)cc2)c2ccccc21)OCC (racemic) [Example 168, (RS)-3-((4-Chlorophenyl)aminocarbonylmethyl)-3-(N'-(4-chlorophenyl)ureido)-1-(2,2-diethoxyethyl)indolin-2-one]	2.6 nM	61%	
CCOC(CN1C(=O)C(NC(=O)Nc2ccc(C)cc2)(NC(=O)Nc2ccc(C)cc2)c2ccccc21)OCC [Example 10, 1-(2,2-Diethoxyethyl)-3,3-bis(N'-(4-methylphenyl)ureido)indolin-2-one]	2.5 nM	59%	
CCOC(CN1C(=O)C(CC(=O)Nc2ccc(N(C)C(=O)C(F)(F)F)cc2)(NC(=O)Nc2ccc(C)cc2)c2ccccc21)OCC (racemic) [Example 131, (RS)-1-(2,2-Diethoxyethyl) 3-((4-(N-trifluoromethylcarbonyl-N-methylamino)phenyl)aminocarbonylmethyl)-3-(N'-(4-methylphenyl)ureido)indolin-2-one]	23 nM	65%	
CCOC(CN1C(=O)C(CC(=O)Nc2ccc(C)cc2)(NC(=O)Nc2ccc(F)cc2)c2ccccc21)OCC (racemic) [Example 82, (RS)-1-(2,2-Diethoxyethyl)-3-(N'-(4-fluorophenyl)ureido)-3-((4-methylphenyl)aminocarbonylmethyl)indolin-2-one]	6.2 nM	56%	
CCOC(CN1C(=O)C(CC(=O)Nc2ccc(C)cc2)(NC(=O)Nc2ccccc2)c2ccccc21)OCC (racemic) [Example 84, (RS)-1-(2,2-Diethoxyethyl)-3-((4-methylphenyl)aminocarbonylmethyl)-3-(N'-phenylureido)indolin-2-one]	3.4 nM	68%	
CCOC(CN1C(=O)C(NC(=O)Nc2ccc(F)cc2)(NC(=O)Nc2ccc(F)cc2)c2ccccc21)OCC [Example 14, 1-(2,2-Diethoxyethyl)-3,3-bis(N'-(4-fluorophenyl)ureido)indolin-2-one]	2.2 nM	49%	
CCOC(CN1C(=O)C(CC(=O)Nc2ncccn2)(NC(=O)Nc2ccc(C)cc2)c2ccccc21)OCC (racemic) [Example 132, (RS)-1-(2,2-Diethoxyethyl)-3-(N'-(4-methylphenyl)ureido)-3-((2-pyrimidinyl)aminocarbonylmethyl)indolin-2-one]	8.9 nM	52%	
CCOC(CN1C(=O)C(CC(=O)Nc2ccc(F)cc2)(NC(=O)Nc2ccc(F)cc2)c2ccccc21)OCC (racemic) [Example 170, (RS)-1-(2,2-Diethoxyethyl)-3-((4-fluorophenyl)aminocarbonylmethyl)-3-(N'-(4-fluorophenyl)ureido)indolin-2-one]	5.1 nM	63%	

Now from value to compound, other results behind:

IC50 [1]	SMILES	inhibition in vivo at 10 mg/kg (gastric acid secretion)	inhibition in vivo at 3 mg/kg (gastric acid secretion; 3 mg/kg)
1.6 nM	CCOC(CN1C(=O)C(CC(=O)Nc2ccc(C)cc2)(NC(=O)Nc2cccc(C)c2)c2ccccc21)OCC (racemic) [Example 81, (RS)-1-(2,2-Diethoxyethyl)-3-((4-methylphenyl)aminocarbonylmethyl)-3-(N'-(3-methylphenyl)ureido)indolin-2-one]	59%	
1.1 nM	CCOC(CN1C(=O)C(CC(=O)Nc2ccc(OC)cc2)(NC(=O)Nc2cccc(OC)c2)c2ccccc21)OCC (racemic) [Example 148, (RS)-1-(2,2-Diethoxyethyl)-3-((4-methoxyphenyl)aminocarbonylmethyl)-3-(N'-(3-methoxyphenyl)ureido)indolin-2-one]	63%	
2.1 nM	CCOC(CN1C(=O)C(CC(=O)Nc2cccc(C)c2)(NC(=O)Nc2cccc(OC)c2)c2ccccc21)OCC (racemic) [Example 152, (RS)-1-(2,2-Diethoxyethyl)-3-(N'-(3-methoxyphenyl)ureido)-3-((3-methylphenyl)aminocarbonylmethyl)indolin-2-one]	64%	
3.5 nM	CCOC(CN1C(=O)C(CC(=O)Nc2ccc(C)cc2)(NC(=O)Nc2cccc(F)c2)c2ccccc21)OCC (racemic) [Example 94, (RS)-1-(2,2-Diethoxyethyl)-3-(N'-(3-fluorophenyl)ureido)-3-((4-methylphenyl)aminocarbonylmethyl)indolin-2-one]	70%	
0.35 nM	CCOC(CN1C(=O)C(CC(=O)Nc2ccc(C)cc2)(NC(=O)Nc2cccc(OC)c2)c2ccccc21)OCC (single isomer, unassigned; (+)) [Example 188, (+)-1-(2,2-Diethoxyethyl)-3-(4-methylphenyl)aminocarbonylmethyl-3-(N'-(3-methoxyphenyl)ureido)indolin-2-one]		76%
1.9 nM	CCOC(CN1C(=O)C(CC(=O)Nc2ccc(Cl)cc2)(NC(=O)Nc2ccc(OC)cc2)c2ccccc21)OCC (racemic) [Example 169, (RS)-3-(-(4-Chlorophenyl)aminocarbonylmethyl)-1-(2,2-diethoxyethyl)-3-(N'-(4-methoxyphenyl)ureido)indolin-2-one]	52%	
2.9 nM	CCOC(CN1C(=O)C(CC(=O)Nc2cccc(OC)c2)(NC(=O)Nc2cccc(OC)c2)c2ccccc21)OCC (racemic) [Example 151, (RS)-1-(2,2-Diethoxyethyl)-3-((3-methoxyphenyl)aminocarbonylmethyl)-3-(N'-(3-methoxyphenyl)ureido)indolin-2-one]	62%	
5.8 nM	CCOC(CN1C(=O)C(CC(=O)Nc2ccc(C)cc2)(NC(=O)Nc2cccc(Cl)c2)c2ccccc21)OCC (racemic) [Example 89, (RS)-3-(N'-(3-Chlorophenyl)ureido)-1-(2,2-diethoxyethyl)-3-((4-methylphenyl)aminocarbonylmethyl)indolin-2-one]	65%	
0.93 nM	CCOC(CN1C(=O)C(CC(=O)Nc2ccc(Cl)cc2)(NC(=O)Nc2cccc(OC)c2)c2ccccc21)OCC (racemic) [Example 149, (RS)-3-((4-Chlorophenyl)aminocarbonylmethyl)-1-(2,2-diethoxyethyl)-3-(N'-(3-methoxyphenyl)ureido)indolin-2-one]	69%	
1.2 nM	CCOC(CN1C(=O)C(CC(=O)Nc2ccc(C)cc2)(NC(=O)Nc2cccc(OC)c2)c2ccccc21)OCC (racemic) [Example 85, (RS)-1-(2,2-Diethoxyethyl)-3-(N'-(3-methoxyphenyl)ureido)-3-((4-methylphenyl)aminocarbonylmethyl)indolin-2-one]	72%	
1 nM	CCOC(CN1C(=O)C(CC(=O)Nc2ccc(F)cc2)(NC(=O)Nc2cccc(OC)c2)c2ccccc21)OCC (racemic) [Example 154, (RS)-1-(2,2-Diethoxyethyl)-3-((4-fluorophenyl)aminocarbonylmethyl)-3-(N'-(3-methoxyphenyl)ureido)indolin-2-one]	59%	
